Molecular target: T1, human α-amino-β-carboxymuconate-ε-semialdehyde decarboxylase (ACMSD) (Homo sapiens, UniProt Q8TDX5)
T1 construct: recombinant hACMSD expressed in Pichia pastoris; homodimer
Test: X-ray co-crystal structure at […] Å; Ki from coupled spectrophotometric assay (Dixon tight-binding competitive inhibition)
Type: biochemical

T1 sequence (Q8TDX5 whole entry): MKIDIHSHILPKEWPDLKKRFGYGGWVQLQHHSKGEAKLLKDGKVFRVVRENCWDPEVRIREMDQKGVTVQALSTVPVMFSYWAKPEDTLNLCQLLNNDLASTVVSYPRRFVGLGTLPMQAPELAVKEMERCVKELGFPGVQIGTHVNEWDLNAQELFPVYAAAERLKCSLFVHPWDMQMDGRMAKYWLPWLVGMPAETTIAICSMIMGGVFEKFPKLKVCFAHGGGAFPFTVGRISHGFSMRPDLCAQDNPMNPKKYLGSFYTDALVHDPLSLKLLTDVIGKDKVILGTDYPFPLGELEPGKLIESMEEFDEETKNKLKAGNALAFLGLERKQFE

**Q.** For `N#Cc1c(-c2cccs2)nc(SCc2cccc(CC(=O)O)c2)[nH]c1=O` [compound 4, 2-[3-[(5-cyano-6-oxo-4-thiophen-2-yl-1H-pyrimidin-2-yl)sulfanylmethyl]phenyl]acetic acid], which Ki is on record?
**A.** 850 ± 220 pM

— article PMC9021598, “Structural Basis of Human Dimeric α-Amino-β-Carboxymuconate-ε-Semialdehyde Decarboxylase Inhibition With TES-1025” (Frontiers in Molecular Biosciences, 2022)
